The subject of experiment [1] is P-388 (suspension culture of a lymphoid neoplasm from DBA-2 mouse).
Description: (§1) Cells were maintained in logarithmic phase of growth in Eagle's Minimum Essential Medium, with Earle's Balanced Salts, with 2.0 mM L-glutamine, with non-essential amino acids, without sodium bicarbonate (EMEM/neaa); supplemented with 10% Fetal Calf Serum (FCS), 10^−2 M sodium bicarbonate and 0.1 g/l penicillin-G+streptomycin sulfate.
A simple screening procedure was carried out to determine and compare the antitumor activity of this compound, using an adapted form of the method described by Bergeron et al. [Biochem. Bioph. […] The antitumor cells employed were P-388 (suspension culture of a lymphoid neoplasm from DBA-2 mouse), A-549 (monolayer culture of a human lung carcinoma), HT-29 (monolayer culture of a human colon carcinoma) and MEL-28 (monolayer culture of a human melanoma).
P-388 cells were seeded into 16 mm wells at 1×10^4 cells per well in 1 ml aliquots of MEM 5FCS containing the indicated concentration of drug. A separate set of cultures without drug was seeded as control growth to ensure that cells remained in exponential phase of growth. All determinations were carried out in duplicate. After three days of incubation at 37° C., 10% CO2 in a 98% humid atmosphere, an approximate IC50 was determined by comparing the growth in wells with drug to the growth in wells control.
Experiment [2] deals with A-549 (monolayer culture of a human lung carcinoma).
Description: as §1
(§2) The antitumor cells employed were P-388 (suspension culture of a lymphoid neoplasm from DBA-2 mouse), A-549 (monolayer culture of a human lung carcinoma), HT-29 (monolayer culture of a human colon carcinoma) and MEL-28 (monolayer culture of a human melanoma).
(§3) A-549, HT-29 and MEL-28 cells were seeded into 16 mm wells at 2×10^4 cells per well in 1 ml aliquots of MEM 10FCS containing the indicated concentration of drug. A separate set of cultures without drug was seeded as control growth to ensure that cells remained in exponential phase of growth. All determinations were carried in duplicate. After three days of incubation at 37° C., 10% CO2 in a 98% humid atmosphere, the wells were stained with 0.1% Crystal Violet. An approximate IC50 was determined by comparing the growth in wells with drug to the growth in wells control.
Experiment [3] concerns HT-29 (monolayer culture of a human colon carcinoma).
Description: as §1, §2, §3
In experiment [4] the test system is MEL-28 (monolayer culture of a human melanoma).
Description: as §1, §2, §3

In brackets after ≈: the same amount, converted by molar mass. Starred links: 1 amine or outer side, 2 acyl side, 3 side chain; linkers in the order of their positions; H or OH if unused. Non-standard residues stand in square brackets, D forms with d. Residues, ends and D or L forms follow the SMILES beside them. *: point of attachment. X1 = O=C([C@@H]1CSC([C@H](Cc2ccccc2)N[*:1])=N1)[*:2]; Allyl(1,1-Me2) = C=CC(C)(C)*

`C=CC(C)(C)OC[C@@H]1NC(=O)[C@H]([C@@H](C)OC(C)(C)C=C)NC(=O)[C@@H]2CSC(=N2)[C@H](Cc2ccccc2)NC(=O)[C@@H]2CCCN2C(=O)[C@H](C)NC(=O)[C@H]([C@@H](C)CC)NC1=O` [trunkamide A] (cyclo(AP[X1]T(Allyl(1,1-Me2))S(Allyl(1,1-Me2))I)): in experiment [1], the “IC50 P-388” value was 0.5 µg/mL (≈ 0.597 µM). Further, the “IC50 A-549” value in experiment [2] turned out to be 0.5 µg/mL (≈ 0.597 µM). Moreover, the “IC50 HT-29” value in experiment [3] came out at 0.5 µg/mL (≈ 0.597 µM). Besides, the “IC50 MEL-28” value in experiment [4] was 1.0 µg/mL (≈ 1.19 µM).
